Patent US20250282895A1, “PHARMACEUTICAL COMPOSITIONS OF CHEMOTHERAPEUTIC AGENTS BASED ON BETA-S[…]-AMINO ACID DERIVATIVES” (priority 2021, published 2025)
Where a name gives a salt, the structure may show the parent alone.

Test: Comparative stability, Formulation 3 (based on Evomela, SBE6.5-β-CD)
Format: physicochemical
Experimental: The stability of Compound (1c) either as the HCl salt or as the free base was compared to the stability of melphalan HCl and/or bendamustine HCl in various pharmaceutical formulations and at different concentrations and at temperatures of 0° C. or 25° C.
The stability of the compounds in the pharmaceutical formulations was determined at concentrations within the range from 0.4 mg/mL to 0.5 mg/mL, from 0.9 mg/mL to 1.1 mg/mL, and from 1.8 mg/mL to 2.1 mg/mL.
The amount of the active pharmaceutical ingredient (API) (Compound (1c), melphalan or bendamustine) in the pharmaceutical formulations at different times during storage was determined using HPLC/UV as described in detail for Example 4 and Example 5.
Evomela® is an injectable formulation of melphalan hydrochloride, 4-[bis(2-chloroethyl)amino]-L-phenylalanine hydrochloride, approved by the FDA. Evomela® is supplied as a sterile white to off-white lyophilized powder in a single-dose vial for intravenous use. Each vial containing 50 mg melphalan free base equivalent to 56 mg melphalan hydrochloride and 2,700 mg betadex sulfobutyl ether (SBE6.5-β-CD; sulfobutyl ether β-cyclodextrin sodium) sodium, NF. Normal saline solution (0.9% Sodium Chloride Injection, USP) (8.6 mL as directed) is used to reconstitute Evomela® to a total of 10 mL having a 5 mg/mL nominal concentration of melphalan. The required volume of Evomela® needed for a patient dose is withdrawn from the vial(s) and added to the appropriate volume of 0.9% Sodium Chloride Injection, USP, to a final nominal concentration of 0.45 mg/mL of melphalan. This solution is then infused via an injection port or central venous catheter.
A series of 12 mL glass vials each containing 5.5 mg (0.0165 mmol of Compound (1c) free base and 270 mg of SBE6.5-β-CD, Captisol®) were prepared as described in Example 4.
The cyclodextrin derivative/Compound (1c) free base guest-host inclusion complex was reconstituted by dissolving the guest-host inclusion complex in 0.86 mL of 0.9% saline to provide 1.0 mL of a solution having a nominal concentration of 5.5 mg/mL of Compound (1c) free base.
A 1.0 mL aliquot of this solution was diluted with 10.0 mL of 0.9% saline, and the pH adjusted with 5 μL of a saturated aqueous NaHCO3 solution to provide 11.0 mL of a clear, colorless solution having a nominal concentration of 0.50 mg/mL of Compound (1c) from Compound (1c) free base and a pH from 5.8 to 6.1.
A 1.0 mL aliquot of this solution was diluted with 4.5 mL of 0.9% saline, and the pH adjusted with 5 μL of a saturated aqueous NaHCO3 solution to provide 5.5 mL of a clear, colorless solution having a nominal concentration of 1.0 mg/mL of Compound (1c) from Compound (1c) free base and a pH of about 6.1.
A 1.0 mL aliquot of this solution was diluted with 1.75 mL of 0.9% saline, and the pH adjusted with 5 μL of a saturated aqueous NaHCO3 solution to provide 2.75 mL of a clear, colorless solution having a nominal concentration of 2.0 mg/mL of Compound (1c) from Compound (1c) free base and a pH of about 6.1.
A series of 12 mL glass vials each containing 6.1 mg (0.0165 mmol of Compound (1c) mono-hydrochloride salt (corresponding to 5.5 mg of Compound (1c) free base) and 270 mg of SBE6.5-β-CD, Captisol®) were prepared as described in Example 5.
The cyclodextrin derivative/Compound (1c) mono-HCl salt guest-host inclusion complex was reconstituted by dissolving the guest-host inclusion complex in 0.86 mL of 0.9% saline to provide 1.0 mL of a solution having a nominal concentration of 6.1 mg/mL of Compound (1c) mono-HCl salt (corresponding to a nominal concentration of 5.5 mg/mL of the Compound (1c) free base).
A 0.5 mL aliquot of this solution was diluted with 5.0 mL of 0.9% saline, and the pH adjusted with 5 μL of a saturated aqueous NaHCO3 solution to provide 5.5 mL of a clear, colorless solution having a nominal concentration of 0.50 mg/mL of Compound (1c) from Compound (1c) mono-hydrochloride and a pH from 5.3 to 5.5. […]

[1] = Formulation 3, 0° C., 0.5 hours, 0.4-0.5 mg/mL, pH 5.8-6.1 (melphalan), pH 5-6 (Compound (1c)•HCl)
[2] = Formulation 3, 0° C., 2.0 hours, 0.4-0.5 mg/mL, pH 5.8-6.1 (melphalan), pH 5-6 (Compound (1c)•HCl)

Cc1ccc(N(CCCl)CCCl)cc1C[C@H](N)CC(=O)O [Compound (1c)•HCl, (S)-3-amino-4-(5-(bis(2-chloroethyl)amino)-2-methylphenyl) butanoic acid mono hydrochloride salt]
% API [1]: 97% | % API (Formulation 3, 0° C., 0.5 hours, 0.9-1.1 mg/mL, pH 5-6): 97% | % API (Formulation 3, 0° C., 0.5 hours, 1.8-2.1 mg/mL, pH 5-6): 100% | % API [2]: 97% | % API (Formulation 3, 0° C., 2.0 hours, 0.9-1.1 mg/mL, pH 5-6): 91% | % API (Formulation 3, 0° C., 2.0 hours, 1.8-2.1 mg/mL, pH 5-6): 99% | % API (Formulation 3, 25° C., 0.5 hours, 0.4-0.5 mg/mL, pH 5.8-6.1 (melphalan), pH 5-6 (Compound (1c)•HCl), mono hydrochloride salt): 97% | % API (Formulation 3, 25° C., 0.5 hours, 0.9-1.1 mg/mL, pH 5-6 (Compound (1c)•HCl), mono hydrochloride salt): 97% | % API (Formulation 3, 25° C., 0.5 hours, 1.8-2.1 mg/mL, pH 5-6 (Compound (1c)•HCl)): 100% | % API (Formulation 3, 25° C., 2.0 hours, 0.4-0.5 mg/mL, pH 5.8-6.1 (melphalan), pH 5-6 (Compound (1c)•HCl), mono hydrochloride salt): 97% | % API (Formulation 3, 25° C., 2.0 hours, 0.9-1.1 mg/mL, pH 5-6 (Compound (1c)•HCl), mono hydrochloride salt): 91% | % API (Formulation 3, 25° C., 2.0 hours, 1.8-2.1 mg/mL, pH 5-6 (Compound (1c)•HCl), mono hydrochloride salt): 99%

Cl.N[C@@H](Cc1ccc(N(CCCl)CCCl)cc1)C(=O)O [Melphalan•HCl, 4-[bis(2-chloroethyl)amino]-L-phenylalanine hydrochloride, reference compound]
% API [1]: 97% | % API [2]: 92% | % API (Formulation 3, 25° C., 0.5 hours, 0.4-0.5 mg/mL, pH 5.8-6.1 (melphalan), pH 5-6 (Compound (1c)•HCl)): 97% | % API (Formulation 3, 25° C., 2.0 hours, 0.4-0.5 mg/mL, pH 5.8-6.1 (melphalan), pH 5-6 (Compound (1c)•HCl)): 92%
